Results: patent US20050090529A1, “3,5 Disubstituted indazole compounds with nitrogen-bearing 5-membered heterocycles, pharmaceutical compositions, and methods for mediating or inhibiting cell proliferation” (PFIZER INC, priority 2003, published 2005)

tested on: Cyclin-dependent kinase; test: Cyclin-dependent kinase inhibition, % inhibition at 10 nM (library Examples 99-270); assay type: biochemical; details: 10 nM compound
Description: Cyclin-dependent kinase activity was measured by quantifying the enzyme-catalyzed, time-dependent incorporation of radioactive phosphate from [^32P]ATP or [^33P]ATP into a protein substrate. Unless noted otherwise, assays were performed in 96-well plates in a total volume of 50 μL, in the presence of 10 mM HEPES (N-[2-hydroxyethyl]piperazine-N′-[2-ethanesulfonic acid]) (pH 7.4), 10 mM MgCl2, 25 μM adenosine triphosphate (ATP), 1 mg/mL ovalbumin, 5 μg/mL leupeptin, 1 mM dithiothreitol, 10 mM beta-glycerophosphate, 0.1 mM sodium vanadate, 1 mM sodium fluoride, 2.5 mM ethylene glycol-bis(β-aminoethyl ethKer)-N,N,N′N′-tetraacetic acid (EGTA), 2% (v/v) dimethylsulfoxide, and 0.03-0.4 μCi [^32/33P]ATP per reaction. Reactions were initiated with enzyme, incubated at 30° C., and terminated after 20 minutes by the addition of ethylenediaminetetraacetic acid (EDTA) to 250 mM. The phosphorylated substrate was then captured on a nitrocellulose or phosphocellulose membrane using a 96-well filtration manifold, and unincorporated radioactivity was removed by repeated washing with 0.85% phosphoric acid. Radioactivity was quantified by exposing the dried membranes to a phosphorimager.
Results of assays performed on compounds, which include the specific examples described above are provided in Examples 99-274 above, and in Table 1 below. Unless indicated otherwise in a particular entry, the units and assays used are as indicated in the applicable column of the table.

Row | Structure (SMILES) | % Inhib @ 10 nM
1 | CCNCc1cncc(-c2ccc3[nH]nc(-c4ncc(C(=O)NCCCn5ccnc5)[nH]4)c3c2)c1C [Example 99, 2-(5-{5-[(ethylamino)methy]-4-methylpyridin-3-yl}-1H-indazol-3-yl)-N-[3-(1H-imidazol-1-yL)propyl]-1H-imidazole-5-carboxamide] | 39%
2 | CCNCc1cncc(-c2ccc3[nH]nc(-c4ncc(C(=O)NC(C)CO)[nH]4)c3c2)c1C (stereo not shown) [Example 100] | 65%
3 | CCNCc1cncc(-c2ccc3[nH]nc(-c4ncc(C(=O)NCc5cccnc5)[nH]4)c3c2)c1C [Example 101] | 54%
4 | CCNCc1cncc(-c2ccc3[nH]nc(-c4ncc(C(=O)NCCc5ccccn5)[nH]4)c3c2)c1C [Example 102] | 81%
5 | CCNCc1cncc(-c2ccc3[nH]nc(-c4ncc(C(=O)NCCN5CCOCC5)[nH]4)c3c2)c1C [Example 103, 2-(5-{5-[(ethylamino)methyl]-4-methylpyridin-3-yl}-1H-indazol-3-yl)-N-(2-morpholin-4-ylethyl)-1H-imidazole-5-carboxamide] | 40%
6 | CCNCc1cncc(-c2ccc3[nH]nc(-c4ncc(C(=O)NCc5ccccc5OC)[nH]4)c3c2)c1C [Example 106] | 78%
7 | CCNCc1cncc(-c2ccc3[nH]nc(-c4ncc(C(=O)N5CCC(n6c(=O)[nH]c7ccccc76)CC5)[nH]4)c3c2)c1C [Example 107] | 59%
8 | CCNCc1cncc(-c2ccc3[nH]nc(-c4ncc(C(=O)N[C@H](Cc5ccccc5)C(N)=O)[nH]4)c3c2)c1C [Example 108, N-{[2-(5-{5-[(ethylamino)methyl]-4-methylpyridin-3-yl}-1H-indazol-3-yl)-1H-imidazol-5-yl]carbonyl}-D-phenylalaninamide] | 57%
9 | CCNCc1cncc(-c2ccc3[nH]nc(-c4ncc(C(=O)NCC(N)=O)[nH]4)c3c2)c1C [Example 109, N-(2-amino-2-oxoethyl)-2-(5-{5-[(ethylamino)methyl]-4-methylpyridin-3-yl}-1H-indazol-3-yl)-1H-imidazole-5-carboxamide] | 69%
10 | CCNCc1cncc(-c2ccc3[nH]nc(-c4ncc(C(=O)NCCc5cccc(OC)c5)[nH]4)c3c2)c1C [Example 114, 2-(5-{5-[(ethylamino)methyl]-4-methylpyridin-3-yl}-1H-indazol-3-yl)-N-[2-(3-methoxyphenyl)ethyl]-1H-imidazole-5-carboxamide] | 64%
11 | CCNCc1cncc(-c2ccc3[nH]nc(-c4ncc(C(=O)N5CCN(c6ccccn6)CC5)[nH]4)c3c2)c1C [Example 115, ethyl{[4-methyl-5-(3-{5-[(4-pyridin-2-piperazin-1-yl)carbonyl]-1H-imidazol-yl}-1H-indazol-5-yl)pyridin-3-yl]methyl}amine] | 72%
12 | CCNCc1cncc(-c2ccc3[nH]nc(-c4ncc(C(=O)N5CCN(C(C)=O)CC5)[nH]4)c3c2)c1C [Example 116] | 66%
13 | CCNCc1cncc(-c2ccc3[nH]nc(-c4ncc(C(=O)N5CCN(Cc6ccccc6)CC5)[nH]4)c3c2)c1C [Example 117] | 72%
14 | CCNCc1cncc(-c2ccc3[nH]nc(-c4ncc(C(=O)N5CCN(CC(=O)NC(C)C)CC5)[nH]4)c3c2)c1C [Example 118, 2-(4-{[2-(5-{5-[(ethylamino)methyl]-4-methylpyridin-3-yl}-1H-indazol-3-yl)-1H-imidazol-5-yl]carbonyl}piperazin-1-yl)-N-isopropylacetamide] | 44%
15 | CCNCc1cncc(-c2ccc3[nH]nc(-c4ncc(C(=O)N5CCCN(C)CC5)[nH]4)c3c2)c1C [Example 119, ethyl{(4-methyl-5-(3-{5-[(4-methyl-1,4-diazepan-1-yl)carbonyl]-1H-imidazol-2-yl}-1H-indazol-5-yl)pyridin-3-yl]methyl}amine] | 38%
16 | CCNCc1cncc(-c2ccc3[nH]nc(-c4ncc(C(=O)N(C)CCCN(C)C)[nH]4)c3c2)c1C [Example 122] | 30%
17 | CCNCc1cncc(-c2ccc3[nH]nc(-c4ncc(C(=O)N(CCN(C)C)Cc5ccccc5)[nH]4)c3c2)c1C [Example 123, N-benzyl-N-[2-(dimethylamino)ethyl]-2-(5-{5-[(ethylamino)methyl]-4-methylpyridin-3-yl}-1H-indazol-3-yl)-1H-imidazale-5-carboxamide] | 54%
18 | CCNCc1cncc(-c2ccc3[nH]nc(-c4ncc(C(=O)N5CCN(CCO)CC5)[nH]4)c3c2)c1C [Example 125, 2-(4-{[2-(5-{5-[(ethylamino)methyl]-4-methylpyridin-3-yl}-1H-indazol-3-yl)-1H-imidazol-5-yl]carbonyl}piperazin-1-yl)ethanol] | 40%
19 | CCNCc1cncc(-c2ccc3[nH]nc(-c4ncc(C(=O)NC5C6CC7CC(C6)CC5C7)[nH]4)c3c2)c1C (stereo not shown) [Example 126, N-2-adamantyl-2-(5-{5-[(ethylamino)methyl]-4-methylpyridin-3-yl}-1H-indazol-3-yl)-1H-imidazole-5-carboxamide] | 89%
20 | CCNCc1cncc(-c2ccc3[nH]nc(-c4ncc(C(=O)N5CCC(NC(C)=O)C5)[nH]4)c3c2)c1C (stereo not shown) [Example 129] | 55%
21 | CCNCc1cncc(-c2ccc3[nH]nc(-c4ncc(C(=O)N(CC)CC)[nH]4)c3c2)c1C [Example 132, N,N-diethyl-2-(5-{5-[(ethylamino)methyl]-4-methylpyridin-3-yl}-1H-indazol-3-yl)-1H-imidazxole-5-carboxamide] | 80%
22 | CCNCc1cncc(-c2ccc3[nH]nc(-c4ncc(C(=O)N5CCN(c6c(C)cccc6C)CC5)[nH]4)c3c2)c1C [Example 133] | 67%

More lines, now with the values ahead:

Row | % Inhib @ 10 nM | Structure (SMILES)
23 | 54% | CCNCc1cncc(-c2ccc3[nH]nc(-c4ncc(C(=O)NCCOCCO)[nH]4)c3c2)c1C [Example 104]
24 | 74% | CCNCc1cncc(-c2ccc3[nH]nc(-c4ncc(C(=O)N[C@H](c5ccccc5)[C@@H](O)c5ccccc5)[nH]4)c3c2)c1C [Example 105, 2-(5-{5-[(ethylamino)methyl]-4-methylpyridin-3-yl}-1H-indazol-3-yl)-N-[(1R,2S)-2-hydroxy-1,2-diphenylethyl]-1H-imidazole-5-carboxamide]
25 | 66% | CCNCc1cncc(-c2ccc3[nH]nc(-c4ncc(C(=O)NCC5CCCO5)[nH]4)c3c2)c1C (stereo not shown) [Example 110, 2-(5-{5-[(ethylamino)methyl]-4-methylpyridin-3-yl}-1H-indazol-3-yl)-N-(tetrahydrofuran-2-ylmethyl)-1H-imidazole-5-carboxamide]
26 | 73% | CCNCc1cncc(-c2ccc3[nH]nc(-c4ncc(C(=O)N[C@@H](CO)[C@@H](O)c5ccc(SC)cc5)[nH]4)c3c2)c1C [Example 111, 2-(5-{5-[(ethylamino)methyl]-4-methylpyridin-3-yl}-1H-indazol-3-yl)-N-{(1S,2S)-2-hydroxy-1-(hydroxymethyl)-2-[4-(methylthio)phenyl]ethyl}-1H-imidazole-5-carboxamide]
27 | 80% | CCNCc1cncc(-c2ccc3[nH]nc(-c4ncc(C(=O)N5CCC(O)(c6ccccc6)CC5)[nH]4)c3c2)c1C [Example 112, 1-{[2-(5-{5-[(ethylamino)methyl]-4-methylpyridin-3-yl}-1H-indazol-3-yl)-1H-imidazol-5-yl]carbonyl}-4-phenylpiperidin-4-ol]
28 | 61% | CCNCc1cncc(-c2ccc3[nH]nc(-c4ncc(C(=O)N5CCC(C#N)(c6ccccc6)CC5)[nH]4)c3c2)c1C [Example 113, 1-{[2-(5-{5-[(ethylamino)methyl]-4-methylpyridin-3-yl}-1H-indazol-3-yl)-1H-imidazol-5-yl]carbonyl}-4-phenylpiperidine-4-carbonitrile]
29 | 45% | CCNCc1cncc(-c2ccc3[nH]nc(-c4ncc(C(=O)NCCc5c[nH]c6cc(OC)ccc56)[nH]4)c3c2)c1C [Example 120]
30 | 69% | CCNCc1cncc(-c2ccc3[nH]nc(-c4ncc(C(=O)N5CCc6cc(OC)c(OC)cc6C5)[nH]4)c3c2)c1C [Example 121, {[5-(3-{5-[(6,7-dimethoxy-3,4-dihydroisoquinolin-2(1H)-yl)carbonyl}-1H-imidazol-2-yl}-1H-indazol-5-yl)-4-methylpyridin-3-yl]methyl)ethylamine]
31 | 56% | CCNCc1cncc(-c2ccc3[nH]nc(-c4ncc(C(=O)N(CCO)Cc5ccccc5)[nH]4)c3c2)c1C [Example 124, N-benzyl-2-(5-{5-[(ethylamino)methyl]-4-methylpyridin-3-yl}-1H-indazol-3-yl)-N-(2-hydroxyethyl)-1H-imidazole-5-carboxamide]
32 | 26% | CCNCc1cncc(-c2ccc3[nH]nc(-c4ncc(C(=O)N5CCN(CC(=O)N6CCOCC6)CC5)[nH]4)c3c2)c1C [Example 127, ethyl({4-methyl-5-[3-(5-{[4-(2-morpholin-4-yl-2-oxoethyl)piperazin-1-yl]carbonyl}-1H-imidazol-2-yl)-1H-indazol-5-yl]pyridin-3-yl}methyl)amine]
33 | 28% | CCNCc1cncc(-c2ccc3[nH]nc(-c4ncc(C(=O)NCCCN5CCCC5=O)[nH]4)c3c2)c1C [Example 130]
34 | 57% | CCNCc1cncc(-c2ccc3[nH]nc(-c4ncc(C(=O)NCCC5=CCCCC5)[nH]4)c3c2)c1C [Example 131]
